Here are results for 7 compounds from US20080132555A1, “PREPARATION AND UTILITY OF SUBSTITUTED PHENYLTETRAZOLES” (AUSPEX PHARMACEUTICALS, INC., priority 2006, published 2008).

Molecules are shown by their SMILES.

For series [1] the following is noted: 5 microgram per mL. As for the experimental part: Liver microsomal stability assays were conducted at 1 mg per mL liver microsome protein with an NADPH-generating system in 2% NaHCO3 (2.2 mM NADPH, 25.6 mM glucose 6-phosphate, 6 units per mL glucose 6-phosphate dehydrogenase and 3.3 mM MgCl2). Test compounds were prepared as solutions in 20% acetonitrile-water and added to the assay mixture (final assay concentration 5 microgram per mL) and incubated at 37° C. Final concentration of acetonitrile in the assay were <1%. Aliquots (50 μL) were taken out at times 0, 15, 30, 45, and 60 minutes, and diluted with ice cold acetonitrile (200 μL) to stop the reactions. Samples were centrifuged at 12000 RPM for 10 minutes to precipitate proteins. Supernatants were transferred to microcentrifuge tubes and stored for LC/MS/MS analysis of the degradation half-life of the test compounds.

The conditions of series [2]: cited from earlier work.

In the case of `[2H]C([2H])(O)c1c(Cl)nc(CCCC)n1Cc1ccc(-c2ccccc2-c2nn[nH]n2)cc1` [Example 1, d2-{2-Butyl-5-chloro-3-[2′-(2H-tetrazol-5-yl)-biphenyl-4-ylmethyl]-3H-imidazol-4-yl}-methanol], the “increase in the degradation half-life as compared to the non-isotopically enriched drug (losartan)” value in series [1] is 30-180%. Turning to `[2H]C(c1nc(Cl)c(CO)n1Cc1ccc(-c2ccccc2-c2nn[nH]n2)cc1)C([2H])([2H])C([2H])([2H])C([2H])([2H])[2H]` (stereo not shown) [Example 2, d8-{2-Butyl-5-chloro-3-[2′-(2H-tetrazol-5-yl)-biphenyl-4-ylmethyl]-3H-imidazol-4-yl}-methanol], in series [1], the “increase in the degradation half-life as compared to the non-isotopically enriched drug (losartan)” value was 30-180%. On the same count and under the same terms, for `[2H]C(O)c1c(Cl)nc(C([2H])C([2H])([2H])C([2H])([2H])C([2H])([2H])[2H])n1Cc1ccc(-c2ccccc2-c2nn[nH]n2)cc1` (stereo not shown) [Example 3, d9-{2-Butyl-5-chloro-3-[2′-(2H-tetrazol-5-yl)-biphenyl-4-ylmethyl]-3H-imidazol-4-yl}-methanol] the value was 30-180%.

Take `[2H]C(c1nc(Cl)c(C([2H])([2H])O)n1Cc1ccc(-c2ccccc2-c2nn[nH]n2)cc1)C([2H])([2H])C([2H])([2H])C([2H])([2H])[2H]` (stereo not shown) [Example 4, d10-{2-Butyl-5-chloro-3-[2′-(2H-tetrazol-5-yl)-biphenyl-4-ylmethyl]-3H-imidazol-4-yl}-methanol]: the “increase in the degradation half-life as compared to the non-isotopically enriched drug (losartan)” value in series [1] is 30-180%. On the same count and under the same terms, for `[2H]C(O)c1c(Cl)nc(C([2H])([2H])CCC)n1Cc1ccc(-c2ccccc2-c2nn[nH]n2)cc1` (stereo not shown) [Example 5, d3-{2-Butyl-5-chloro-3-[2′-(2H-tetrazol-5-yl)-biphenyl-4-ylmethyl]-3H-imidazol-4-yl}-methanol] the value was 30-180%. The same measure, in the same setting: for `[2H]C([2H])(O)c1c(Cl)nc(C([2H])([2H])CCC)n1Cc1ccc(-c2ccccc2-c2nn[nH]n2)cc1` [Example 6, d4-{2-Butyl-5-chloro-3-[2′-(2H-tetrazol-5-yl)-biphenyl-4-ylmethyl]-3H-imidazol-4-yl}-methanol] the value was 30-180%. Regarding `CCCCc1nc(Cl)c(CO)n1Cc1ccc(-c2ccccc2-c2nn[nH]n2)cc1` [losartan, Losartan], in series [2], the “lowering of the rate of new-onset Diabetes Mellitus relative to the β-blocker atenolol” value is 25%.
